“And” between values parts separate entries of the source, which are not always exact repeats. Identical values can stand only once. “Also recorded” adds a separate entry of the source. Like-named read-outs stand apart in the source and are kept apart here.
Experiments:
[1] = system: aSYN expressing larvae; test: Larval survival assay in liquid culture; assay type: in vivo, Drosophila; conditions: for survival: after 4 days in liquid culture, DMSO 14%, untreated 13%
Experimental: Embryos are collected from transgenic strains and dispensed in 96-well plates containing liquid media culture (200 uL/well). Stock compounds (15, 15×10^−2, 15×10^−5 mM) prepared in DMSO, are diluted 1/10 with media, and then 1 uL of this working reagent is dispensed in culture wells. Percentage survival of mutant and negative control larvae are recorded on day 4 following compound administration. Data are plotted graphically.
Embryos were collected from transgenic strains and dispensed in 96-well plates containing liquid media culture (200 uL/well). Stock compounds (15, 15×10^−2, 15×10^−5 mM) prepared in DMSO, were diluted 1/10 with media, and then 1 uL of this working reagent was dispensed in culture wells. Percentage survival of mutant and negative control larvae are recorded on day 4 following compound administration. Data were plotted graphically with Prism software.

[2] = system: primary neurons expressing human mutant aSYN A30P; test: Primary neuronal culture, neurite morphology (Cellomics ArrayScan); assay type: cell-based, Drosophila; conditions: for neurite length and branching in images vs DMSO controls: 60 nM, FIG. 1B, 1C
Experimental: Primary cell cultures are prepared from mid-gastrula stage embryos as described previously (Sepp et al., 2008). Briefly, embryos are collected on agar media plates and dechorionated in 50% bleach for 4 min., followed by rinsing with sterile distilled water. Embryos are homogenized in Shields and Sang M3 media (Sigma) in a Dounce homogenizer, and debris are pelleted by centrifugation at 40 g for 10 min and then 5 min. Neuroblasts are pelleted by centrifugation at 380G for 10 min. Cells are resuspended at 1×10^6 cells/mL in Shields and Sang M3 media supplemented with 10 U/mL penicillin, 10 ug/mL streptomycin, and 200 ng/mL insulin, and plated on 384-well plates (Corning) at 50 uL/well. Cells are incubated at 21° C. Compound is applied 24 hrs after cells are plated. Stock compounds (15 mM) and log dilutions (10^−1, 10^−2, 10^−3, 10^−4, and 10^−5) are prepared in DMSO, then each stock is further diluted 1/10 with media, and 1 uL of this working reagent is applied to culture wells. Cultures are matured for 7 days. Cultures are fixed and stained as described previously (Halter et al., 1995), using pan-neuronal marker anti-elav (1:10, Developmental Studies Hybridoma Bank), and anti-human aSYN (1:1000, Abeam), and dopaminergic neuron marker anti-tyrosine hydroxylase (1:1000, Millipore). Cultures are imaged on a Cellomics robotic fluorescence microscope, and morphologies are quantified with Cellomics ArrayScan algorithms and statistically processed with Prism software.
Primary cell cultures were prepared from mid-gastrula stage embryos as described previously (Sepp et al., 2008). Briefly, embryos are collected on agar media plates and dechorionated in 50% bleach for 4 min., followed by rinsing with sterile distilled water. Embryos were homogenized in Shields and Sang M3 media (Sigma) in a Dounce homogenizer, and debris pelleted by centrifugation at 40 g for 10 min and then 5 min. Neuroblasts were pelleted by centrifugation at 380G for 10 min. Cells were resuspended at 1×10^6 cells/mL in Shields and Sang M3 media supplemented with 10 U/mL penicillin, 10 ug/mL streptomycin, and 200 ng/mL insulin, and plated on 384-well plates (Corning) at 50 uL/well. Cells were incubated at 21° C. Compound was applied 24 hrs after cells were plated. Stock compounds (15 mM) and log dilutions (10^−1, 10^−2, 10^−3, 10^−4, and 10^−5) were prepared in DMSO, then each stock was further diluted 1/10 with media, and 1 uL of this working reagent was applied to culture wells. Cultures were matured for 7 days. Cultures were fixed and stained as described previously (Halter et al., 1995), using pan-neuronal marker anti-GFP (1:1000, Life Technologies), and anti-human aSYN (1:1000, Abcam). Cultures were imaged on a Cellomics robotic fluorescence microscope, and morphologies are quantified with Cellomics ArrayScan algorithms and statistically processed with Prism software.

[3] = system: human mutant aSYN (AAV1/2 A53T α-Synuclein); test: Quantitative immunoblot of aSYN in AAV-aSYN rat model of Parkinson's disease; assay type: in vivo; conditions: 37.4 ug/h into third ventricle; for aSYN protein levels in postmortem rat brain immunoblots: TPT vs vehicle
Source text: An AAV 1/2-aSYN A53T vector delivery-based over-expression of aSYN in the rat substantia nigra was chosen to model PD synucleinopathy, since it replicates progressive nigrostriatal degeneration and basal ganglia-based motor features of PD better than existing stable transgenic models. Furthermore, time of symptom onset is far more predictable, thus reducing experimental noise. Viral vectors will be delivered as using stereotactic injection. Briefly, 20 Sprague Dawley rats (280 g, Charles River) were injected with AAV 1/2-aSYN A53T to the experimental hemisphere (right) and AAV1/2-GFP to the control hemisphere (left) using standard stereotaxic procedures and isoflurane/oxygen anesthesia. Vector (2 μL) was delivered by microinjector (Stoelting, Kiel, Wis.) at 0.2 μL/min with coordinates from Bregma: AP, −5.2 mm; ML, −2.0 mm; DV, −7.5 mm. Viral stock concentrations for both AAV1/2 GFP and AAV1/2-aSYN A53T were 1.7×10^12 gp/mL. Animals were housed in pairs at 20° C. with a 12 hr light/dark cycle with food and water ad libitum. Animals recovered were maintained with regular care for 3 weeks as viral gene expression of aSYN built to emerging pathological levels as characterized previously.
On Day 1 of Week 3, rats were fitted with osmotic mini-pumps to administer TPT to the third ventricle. Intracerebral administration was chosen to maximize the amount of drug given to the brain and minimize side effects in peripheral tissues. Using standard stereotaxic procedures, a 22-gauge guide cannula (Plastics One, Roanoake, Va.) was placed into the third ventricle (AP, −1.3 mm, ML, +0.0 mm; DV −4.6 mm with respect to bregma) of isoflurane/oxygen anesthetized rats, and anchored with dental acrylic. […]
Standard Western blot techniques are used on dissected postmortem tissues to determine if aSYN levels decrease in response to TPT treatment. […] Blots are imaged on an Odyssey Quantitative Fluorescence Imaging System. Two-tailed student's t-test is used Western blot quantifications.

[4] = Pharmacokinetic analysis: mass-spec of TPT in postmortem rat brain; assay type: in vivo; conditions: osmotic pump into third ventricle, 37.4 ug/h
Source text: On Day 1 of Week 3, rats were fitted with osmotic mini-pumps to administer TPT to the third ventricle. Intracerebral administration was chosen to maximize the amount of drug given to the brain and minimize side effects in peripheral tissues. Using standard stereotaxic procedures, a 22-gauge guide cannula (Plastics One, Roanoake, Va.) was placed into the third ventricle (AP, −1.3 mm, ML, +0.0 mm; DV −4.6 mm with respect to bregma) of isoflurane/oxygen anesthetized rats, and anchored with dental acrylic. Rats were bilaterally infused with TPT or vehicle using a mini-osmotic pulp (Alzet model 2ML2 pump, flow rate 5.0 uL/hr, Durect Corp. Cupertino) to the third ventricle, which was delivered for 2 weeks. The pumps were filled with 16.34 mM topotecan (TPT) (CPT06, Molcan Corporation) in 50 mM tartaric acid with 0.9% saline (delivered at 37.4 μg/h), or vehicle control alone. Upon cessation of drug on Day 7 of Week 4 or at some other time point, rats were sacrificed by an overdose of pentobarbital (1.0 mL of 240 mg/mL, i.p.) and exsanguinated by transcardial saline perfusion followed by 4% paraformaldehyde.
Postmortem brain samples were subjected to standard quadrupole mass […] analysis to determine brain penetration of TPT into tissue samples.

[5] = system: gap junction; conditions: cited from earlier work
[6] = molecular target: HSD1 (Mus musculus, UniProt P50172); conditions: i.p. 20 mg/kg, every other day for 2 months; cited from earlier work
Sequence of HSD1 (P50172 whole entry): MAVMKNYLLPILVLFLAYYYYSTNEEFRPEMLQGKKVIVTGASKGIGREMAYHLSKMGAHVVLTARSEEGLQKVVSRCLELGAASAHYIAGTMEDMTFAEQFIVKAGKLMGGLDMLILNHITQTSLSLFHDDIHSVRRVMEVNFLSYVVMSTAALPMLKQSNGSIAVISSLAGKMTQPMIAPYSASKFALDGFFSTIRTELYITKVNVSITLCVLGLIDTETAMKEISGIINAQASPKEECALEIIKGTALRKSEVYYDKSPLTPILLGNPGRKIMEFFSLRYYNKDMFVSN

[7] = in vivo, cited from earlier work
[8] = system: polyglutamine-expanded Huntingtin protein; conditions: cited from earlier work; for polyglutamine protein aggregation: Huntington's disease (HD) model

## C[C@@H](CN1CC(=O)NC(=O)C1)N1CC(=O)NC(=O)C1 [dexrazoxane, Dexrazoxane]
[1]; 'med' dose 0.15 uM, n=9
  survival: 75%
[1]; medium dose 0.15 uM
  survival compared to DMSO vehicle-treated controls: improved survival

## CC[C@@]1(O)C(=O)OCc2c1cc1n(c2=O)Cc2cc3c(CN(C)C)c(O)ccc3nc2-1 [topotecan]
[2]; 30 nM, FIG. 1D
  neurite outgrowth vs DMSO control: improved neurite outgrowth
[2]
  neurite length and branching in images vs DMSO controls: longer neurites and reduced neuritic branching
[3]
  aSYN protein levels in postmortem rat brain immunoblots: reduced aSYN protein levels; also recorded: inverse relationship
[3]; listed as TPT
  aSYN protein levels in postmortem rat brain immunoblots: reduced in the TPT treatment with a dose-dependent trend
[3]; three rats, average 2725 ng TPT/g tissue
  reduction in aSYN normalized to beta-Actin vs vehicle control: ~2 fold
[4]
  average TPT brain level of three rats: 2725 ng TPT/g tissue
[4]; n=3 rats, listed as TPT
  TPT level in cortex, single rats: 6809 ng TPT/g tissue and 967 ng TPT/g tissue and 399 ng TPT/g tissue

## CC[C@@]1(O)C(=O)OCc2c1cc1n(c2=O)Cc2cc3cc(O)ccc3nc2-1 [camptothecin-OH, 10-hydroxy-camptothecin]
[2]; 30 nM
  neurite morphology profiles (image features) vs DMSO negative control: improved neurite morphology profiles
[2]; 30 nM, FIG. 1D
  neurite outgrowth vs DMSO control: improved neurite outgrowth
[2]; 30 nM, Mean±SEM, n=4, DMSO vehicle 15240±799.8 (n=18), P<0.05, FIG. 1D
  total neurite length per well: 20170±1430 um
[1]; 'hi' dose 15 uM, n=5
  survival: 100%
[1]; high dose 15 uM
  survival compared to DMSO vehicle-treated controls: improved survival

## CC1(C)[C@@H](OC(=O)CCC(=O)O)CC[C@]2(C)[C@H]3C(=O)C=C4[C@@H]5C[C@@](C)(C(=O)O)CC[C@]5(C)CC[C@@]4(C)[C@]3(C)CC[C@@H]12 [carbenoxolone, (3β)-3-[(3-carboxy-propanoyl)oxy]-11-oxoolean-12-en-30-oic acid]
[2]; 30 nM
  neurite morphology profiles (image features) vs DMSO negative control: improved neurite morphology profiles
[2]; 30 nM, FIG. 1E
  excessive branching vs DMSO vehicle controls: reduces the excessive branching phenotype; also recorded: reduced excessive branching
[2]; 30 nM, Mean±SEM, n=4, DMSO vehicle 4.416±0.2622 (n=16), P<0.05, FIG. 1E
  total branches per well: 3.198±0.1825
[2]
  neurite length and branching in images vs DMSO controls: longer neurites and reduced neuritic branching
[5]
  gap junction blocking activity: have gap junction blocking activity
[6]
  inhibition of target enzyme HSD1: effective at inhibiting the target enzyme HSD1
[7]; concentrations needed for gap junction block
  crossing of the blood-brain-barrier: do not cross the blood-brain-barrier at high enough concentrations
[8]
  polyglutamine protein aggregation: protect against polyglutamine protein aggregation
[8]; early dosing
  lifespan and motor control: extend Drosophila HD model lifespan and improves motor control
[8]; in vivo, Drosophila
  rescue of toxicity of polyglutamine-expanded Huntingtin protein: in vivo rescue of toxicity

## CC1(C)[C@@H](O)CC[C@]2(C)[C@H]3C(=O)C=C4[C@@H]5C[C@@](C)(C(=O)O)CC[C@]5(C)CC[C@@]4(C)[C@]3(C)CC[C@@H]12 [18β-glycyrrhetinic acid]
[5]
  gap junction blocking activity: have gap junction blocking activity
[7]
  crossing of the blood-brain-barrier: do not cross the blood-brain-barrier at high enough concentrations
[8]
  polyglutamine protein aggregation: protect against polyglutamine protein aggregation

— patent publication US20150148369A1, “CHEMICAL SUPPRESSORS OF NEUROTOXICITY IN SYNUCLEINOPATHIC DISEASES” (priority 2012, published 2015)
